Experiments:
[1] = tested on: strain Schinella granuli; experiment: Oxytop respirometry screening test (oxygen overconsumption = uncoupling); format: cell-based
Text: In order to evaluate the reduction in sludge production by an uncoupling chemical agent in respirometry (in order to measure oxygen overconsumption, a characteristic signature of the effects of an uncoupling agent), the oxytop® test technique is used containing a synthetic medium and bacterial strains particularly sensitive to uncoupling agents.
The method and the apparatus used are those described in Example 3 of WO 2004/113236 cited as a reference. The strain Schinella granuli was used as an inoculum in this methodology (which differs from Example 3 of WO 2004/113236 which used activated sludge).
They are expressed as an uncoupling percentage relatively to the control (not comprising any uncoupling agent). This means that for Ex2 at 0.05 mg/l, we have an oxygen overconsumption of 18% relatively to the control not comprising any uncoupling agent. THPS (tetrakis(hydromethyl)phosphonium sulfate) produces uncoupling effects in the oxitop® respirometry tests of 16±8% for a rated concentration of 3 ppm, the 95% confidence interval of THPS in terms of uncoupling factor being, values computed from results obtained in 26 Oxitop® tests.

[2] = tested on: activated sludge from the urban STEP of St-Fons; experiment: Chemostat biological pilot, reduction of activated sludge production (flash mixing); details: 2.9 ppm, 3 months injection
Text: Detection of the reduction of activated sludge by an organophosphonium derivative in a Chemostat® biological pilot.
Tests on biological pilots continuously fed with synthetic effluent dealt with the molecule of Ex2 (Example 2 above), show significant uncoupling effects on the reduction of sludge production. The biological pilots have a volume of 5 liters and are continuously aerated; a purge of the latter is made everyday (except on weekends) in order to obtain a sludge age of about 7 days. The biological pilots were seeded with activated sludge from the urban STEP of St-Fons (France). After a short acclimatization period of the sludge, the treatment with the molecule Ex2 was carried out according to the flash mixing method also described in Example 1 of WO 2004/113236 cited as a reference.
An experiment, for which the total period of injection of the uncoupling product according to the flash mixing method lasted for 3 months, gave the following results:
A complementary experiment, this time using two different grades of the compound Ex2 of Example 2 above, designated as EX21 and EX22a hereafter, gave the following results over a 1 month injection period: […]

O=S(=O)([O-])[O-].OC[P+](CO)(CO)CO.OC[P+](CO)(CO)CO [THPS, tetrakis(hydromethyl)phosphonium sulfate]
uncoupling percentage relatively to the control (oxygen overconsumption) ([1]; 3 ppm (rated concentration), THPS: average over 26 tests): 16±8% | 95% confidence interval in terms of uncoupling factor ([1]; 3 ppm, computed from 26 Oxitop tests): 10-22 | Growth rate [2]: 0.171 g of MLSS/g of removed COD | Reduction in growth rate ([2]; vs untreated control): 9.0% | Reduction in sludge production ([2]; vs untreated control): 13.6%

Source: patent publication US9181116B2, “Organophosphorus derivatives and use thereof as uncoupling agents” (RHODIA OPERATIONS, priority 2009, dated 2015)
